Results from patent US20230233688A1, “MDMA PRODRUGS TO ASSIST PSYCHOTHERAPY” (priority 2021, published 2023).
pEC50: −log10 of the molar value. Read-outs that look alike come from different tables or passages of the source.

Legend:
[1] = tested on: dopamine transporter (DAT) / serotonin transporter (SERT); settings: cited from earlier work
serotonin (5-HT) release = assay: Serotonin (5-HT) release; settings: data on file
healthy subjects [2] = settings: cited from earlier work
humans = settings: cited from earlier work
5-HT2A receptor = 5-HT2A receptor (Homo sapiens, UniProt P28223)
[3] = cited from earlier work; for Tmax (plasma): after administration of 125 mg MDMA to healthy subjects; for elimination half-life: human plasma
healthy subjects [4] = settings: cited from earlier work; for duration of self-reported effects: MDA 1.4 mg/kg orally, indirect comparison with MDMA from different subjects and studies
[5] = receptor studies and limited pre-clinical evidence; cited from earlier work
[6] = relative dopamine over serotonin transporter inhibition potency ratio, literature values
[7] = vs d-amphetamine, equivalent doses

5-HT2A receptor, sequence (P28223 whole entry): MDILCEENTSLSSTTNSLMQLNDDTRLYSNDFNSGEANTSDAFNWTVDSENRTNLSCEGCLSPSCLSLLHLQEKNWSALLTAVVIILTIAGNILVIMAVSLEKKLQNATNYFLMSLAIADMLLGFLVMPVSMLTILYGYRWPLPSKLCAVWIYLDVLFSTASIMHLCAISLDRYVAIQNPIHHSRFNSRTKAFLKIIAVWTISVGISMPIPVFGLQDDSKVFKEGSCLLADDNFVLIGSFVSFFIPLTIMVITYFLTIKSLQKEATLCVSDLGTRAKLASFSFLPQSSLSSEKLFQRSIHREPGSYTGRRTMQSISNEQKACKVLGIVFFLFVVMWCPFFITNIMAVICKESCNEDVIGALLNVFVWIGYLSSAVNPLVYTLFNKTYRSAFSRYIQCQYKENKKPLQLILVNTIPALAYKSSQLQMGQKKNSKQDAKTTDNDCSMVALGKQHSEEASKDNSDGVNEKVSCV

In the case of `CCC(Cc1ccc2c(c1)OCO2)NC` (stereo not shown) [MBDB, 1-(1,3-benzodioxol-5-yl)-methyl-2-butanamine], the DAT/SERT ratio [1, 6] is given as 0.09.
With `CC(N)Cc1ccc2c(c1F)OCO2` (stereo not shown) [2F-MDA] the 5-HT release (serotonin (5-HT) release) was “release 5-HT”.
In the case of `CC(N)Cc1cc(F)c2c(c1)OCO2` (stereo not shown) [5F-MDA], the 5-HT release (serotonin (5-HT) release) was “release 5-HT”.
In the case of `C[C@@H](Cc1ccccc1)NC(=O)[C@@H](N)CCCCN` [lisdexamfetamine], the “maximal effect (Emax) or area under the effect-time curve (AUEC)” value (healthy subjects [2]; lisdexamfetamine vs d-amphetamine) is given as “no differences”, the “maximal concentrations of amphetamine” value (healthy subjects [2]; [7]) is given as “no differences” and the “onset and peak times of the amphetamine concentration-time curve” value (healthy subjects [2]; [7]) is given as “longer”. For the same molecule, the “Tonset of blood pressure-time curve” value (healthy subjects [2]; vs d-amphetamine) was “significantly longer”, the blood pressure increase (humans; 100 mg lisdexamfetamine oral vs d-amphetamine, FIG. 9) was “increased more slowly and later” and the ratings of liking (humans; oral, vs equivalent dose of d-amphetamine, FIG. 8) was “lower”.
In the case of `CC(N)Cc1ccc2occc2c1` (stereo not shown) [5-APB, 5-(2-aminopropyl)-benzofuran], the DAT/SERT ratio [1, 6] is given as 0.05.
With `CC(N)Cc1cc2c(cc1F)OCO2` (stereo not shown) [6F-MDA] the 5-HT release (serotonin (5-HT) release) was “release 5-HT”.
For `NC1Cc2cc3c(cc2C1)OCO3` [MDAI, 5,6-methylenedioxy-2-aminoindane], the DAT/SERT ratio [1] is given as 0.2.
For `CC(N)Cc1ccc2c(c1)OCO2` (stereo not shown) [MDA, 3,4-methylenedioxyamphetamine], the pEC50 (5-HT2A receptor; read-out: EC50 of 5-HT2A receptor activation; Rickli et al., 2015b; cited from earlier work) is given as 6.20, the Tmax (plasma) [3] is given as 4.7 h and the “Peak plasma concentration of MDA relative to that of MDMA” value ([3]; after administration of MDMA) is given as 7-10%. The elimination half-life [3] was 10 to 16 h, the “duration of self-reported effects” value (healthy subjects [4]) was “up to 8 hours” and the “perceptual changes on the 5-Dimensions of Altered States of Consciousness Scale” value (healthy subjects [4]; MDA vs MDMA, indirect comparison) was “greater perceptual changes than MDMA”. The DAT/SERT ratio [1] was 0.24.
With `CCC(N)Cc1ccc2c(c1)OCO2` (stereo not shown) [BDB, 1-(1,3-benzodioxol-5-yl)-2-aminobutane] the 5-HT release (serotonin (5-HT) release) was “release 5-HT”.
For `CC(N)Cc1ccc2ccoc2c1` (stereo not shown) [6-APB, 6-(2-aminopropyl)-benzofuran], the DAT/SERT ratio [1, 6] is given as 0.29.
For `CNC(C)Cc1ccc2c(c1)OCO2` (stereo not shown) [MDMA, 3,4-Methylenedioxymethamphetamine], the pEC50 (5-HT2A receptor; Rickli et al., 2015b; read-out: EC50 of 5-HT2A receptor activation; cited from earlier work) is listed as 5.21, the Tmax (plasma) [3] is listed as 2.6 h and the elimination half-life [3] is listed as 7 to 10 h. The “duration of self-reported effects” value (healthy subjects [4]) was at most 6 h and the DAT/SERT ratio [1] was 0.08.
For `CN[C@H](C)Cc1ccc2c(c1)OCO2` [R(-)-MDMA], the “efficacy as a releaser of dopamine” value [5] is given as “low efficacy” and the hyperthermia [5] is given as “does not produce hyperthermia”.
